From paper PMC4286194 (Biochemical Journal, 2015)

Tests used:
CRTC3 = CRTC3 nuclear translocation (immunofluorescence); assay type: cell-based, mouse; conditions: bone-marrow-derived macrophages, 1 h
Method: Macrophages were seeded on glass coverslips and treated with inhibitors for 1 h. Cells were then fixed for 10 min in 4% paraformaldehyde, permeabilized for 5 min using 0.1% Triton X-100 in PBS and blocked for 45 min using 3% BSA in PBS. Cells were stained with anti-CRTC3 and anti-tubulin followed by Alexa Fluor® […] anti-rabbit and Alexa Fluor® 488-conjugated anti-mouse antibodies respectively. Antibodies were diluted in blocking buffer and incubated with the cells for 45 min. Cells were mounted in Prolong Gold Antifade Reagent containing DAPI (Invitrogen) and visualized under a Zeiss LSM 700 confocal microscope using an Alpha Plan-Apochromat ×100/numerical aperture (NA) 1.46 objective (optical section thickness 0.7 μm). Fields of cells were selected at random using only the DAPI stained channel. Optical sections were taken through the centre of the nuclei, 10 fields collected per coverslip and images were quantified using the Volocity programme (PerkinElmer). Nuclei were identified using the DAPI stained channel, merged objects were separated and the mean intensity of the […] in the nuclear and cytoplasmic regions was measured. For each field, the mean of the nuclear to cytoplasmic intensity ratio was calculated, which was subsequently used to determine the overall mean nuclear to cytoplasmic intensity ratio for each treatment.

ERK5 = ERK5 (Homo sapiens, UniProt Q13164); experiment: Kinase profiling; assay type: biochemical
MARK1 = MARK1 (Homo sapiens, UniProt Q9P0L2); experiment: Kinase profiling; assay type: biochemical
MKK2 = MKK2 (Homo sapiens, UniProt P36507); experiment: Kinase profiling; assay type: biochemical
PDGFRA = PDGFRA (Homo sapiens, UniProt P16234); experiment: Kinase profiling; assay type: biochemical
S6K1 = S6K1 (Homo sapiens, UniProt P23443); experiment: Kinase profiling; assay type: biochemical
TAK1 = target: T1, TAK1 (Homo sapiens, UniProt O43318); experiment: Kinase profiling; assay type: biochemical
T1 sequence (O43318 1-303 limits assumed): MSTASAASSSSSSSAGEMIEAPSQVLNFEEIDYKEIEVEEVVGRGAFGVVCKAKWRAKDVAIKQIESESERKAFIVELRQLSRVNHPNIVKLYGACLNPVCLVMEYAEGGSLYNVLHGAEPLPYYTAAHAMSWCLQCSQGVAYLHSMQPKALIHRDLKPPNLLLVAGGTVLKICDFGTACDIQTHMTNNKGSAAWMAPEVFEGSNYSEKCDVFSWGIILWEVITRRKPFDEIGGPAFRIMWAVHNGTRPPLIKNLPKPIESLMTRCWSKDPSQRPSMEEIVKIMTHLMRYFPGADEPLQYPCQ

ULK2 = target: T2, ULK2 (Homo sapiens, UniProt Q8IYT8); experiment: Kinase profiling; assay type: biochemical
T2 sequence (Q8IYT8 1-1036): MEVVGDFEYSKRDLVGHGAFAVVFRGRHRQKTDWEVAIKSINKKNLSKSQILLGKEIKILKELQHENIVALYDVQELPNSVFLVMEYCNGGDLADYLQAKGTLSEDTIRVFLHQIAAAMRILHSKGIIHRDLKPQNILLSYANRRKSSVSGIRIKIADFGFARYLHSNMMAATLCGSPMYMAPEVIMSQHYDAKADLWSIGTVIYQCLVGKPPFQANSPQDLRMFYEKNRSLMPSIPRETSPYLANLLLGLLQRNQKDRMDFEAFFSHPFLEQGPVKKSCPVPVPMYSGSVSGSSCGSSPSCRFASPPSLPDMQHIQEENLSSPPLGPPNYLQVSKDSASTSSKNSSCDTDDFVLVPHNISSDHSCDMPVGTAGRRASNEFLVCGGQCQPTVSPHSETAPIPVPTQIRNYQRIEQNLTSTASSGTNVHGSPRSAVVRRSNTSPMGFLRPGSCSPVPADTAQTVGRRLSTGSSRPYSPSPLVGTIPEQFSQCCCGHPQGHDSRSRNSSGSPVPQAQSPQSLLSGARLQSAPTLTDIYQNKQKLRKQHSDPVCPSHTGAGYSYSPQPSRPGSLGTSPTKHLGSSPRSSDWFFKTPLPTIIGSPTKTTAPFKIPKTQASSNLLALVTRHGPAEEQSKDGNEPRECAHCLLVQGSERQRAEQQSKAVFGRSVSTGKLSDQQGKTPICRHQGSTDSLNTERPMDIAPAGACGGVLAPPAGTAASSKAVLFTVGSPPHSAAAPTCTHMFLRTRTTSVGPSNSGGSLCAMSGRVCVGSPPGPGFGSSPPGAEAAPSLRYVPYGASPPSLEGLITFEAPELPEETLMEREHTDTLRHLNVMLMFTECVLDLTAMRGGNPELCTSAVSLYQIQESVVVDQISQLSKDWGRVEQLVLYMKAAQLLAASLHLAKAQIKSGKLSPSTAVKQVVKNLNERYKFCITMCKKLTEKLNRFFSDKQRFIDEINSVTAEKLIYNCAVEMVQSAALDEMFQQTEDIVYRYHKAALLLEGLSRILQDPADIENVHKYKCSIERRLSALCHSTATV

Sequence of S6K1 (P23443 whole entry): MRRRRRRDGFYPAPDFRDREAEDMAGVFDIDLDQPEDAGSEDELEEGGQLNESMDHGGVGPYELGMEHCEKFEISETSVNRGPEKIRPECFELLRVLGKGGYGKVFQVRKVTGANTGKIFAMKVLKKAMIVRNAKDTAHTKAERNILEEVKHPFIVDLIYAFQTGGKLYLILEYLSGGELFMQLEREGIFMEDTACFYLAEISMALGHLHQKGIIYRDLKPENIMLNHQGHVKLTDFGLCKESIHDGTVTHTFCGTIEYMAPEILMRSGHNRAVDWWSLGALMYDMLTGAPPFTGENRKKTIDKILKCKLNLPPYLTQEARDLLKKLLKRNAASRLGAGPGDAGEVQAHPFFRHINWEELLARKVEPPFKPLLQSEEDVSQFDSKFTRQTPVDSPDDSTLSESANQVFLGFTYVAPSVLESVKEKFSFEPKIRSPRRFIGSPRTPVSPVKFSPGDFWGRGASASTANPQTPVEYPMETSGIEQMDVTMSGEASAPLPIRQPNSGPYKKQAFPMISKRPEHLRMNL
Sequence of MARK1 (Q9P0L2 whole entry): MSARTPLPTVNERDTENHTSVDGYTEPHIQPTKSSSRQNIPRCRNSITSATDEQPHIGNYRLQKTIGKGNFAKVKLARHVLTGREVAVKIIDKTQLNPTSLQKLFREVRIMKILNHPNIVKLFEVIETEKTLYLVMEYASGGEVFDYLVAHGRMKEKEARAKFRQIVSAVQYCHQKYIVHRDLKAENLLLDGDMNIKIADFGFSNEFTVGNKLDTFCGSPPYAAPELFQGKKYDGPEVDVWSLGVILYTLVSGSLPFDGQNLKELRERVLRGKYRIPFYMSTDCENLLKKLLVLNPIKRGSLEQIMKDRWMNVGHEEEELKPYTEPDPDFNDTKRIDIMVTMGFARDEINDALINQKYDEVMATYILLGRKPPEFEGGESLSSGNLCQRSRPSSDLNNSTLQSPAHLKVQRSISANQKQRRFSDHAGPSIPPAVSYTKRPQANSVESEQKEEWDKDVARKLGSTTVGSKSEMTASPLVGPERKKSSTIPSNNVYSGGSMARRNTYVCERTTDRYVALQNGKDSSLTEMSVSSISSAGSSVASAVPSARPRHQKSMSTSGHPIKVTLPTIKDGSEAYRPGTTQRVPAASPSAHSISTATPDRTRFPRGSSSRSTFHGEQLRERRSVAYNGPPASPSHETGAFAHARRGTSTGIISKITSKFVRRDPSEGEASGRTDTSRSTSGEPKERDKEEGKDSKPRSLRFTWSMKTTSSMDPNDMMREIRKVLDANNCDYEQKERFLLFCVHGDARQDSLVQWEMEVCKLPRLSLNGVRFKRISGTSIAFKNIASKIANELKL
Sequence of PDGFRA (P16234 24-1089): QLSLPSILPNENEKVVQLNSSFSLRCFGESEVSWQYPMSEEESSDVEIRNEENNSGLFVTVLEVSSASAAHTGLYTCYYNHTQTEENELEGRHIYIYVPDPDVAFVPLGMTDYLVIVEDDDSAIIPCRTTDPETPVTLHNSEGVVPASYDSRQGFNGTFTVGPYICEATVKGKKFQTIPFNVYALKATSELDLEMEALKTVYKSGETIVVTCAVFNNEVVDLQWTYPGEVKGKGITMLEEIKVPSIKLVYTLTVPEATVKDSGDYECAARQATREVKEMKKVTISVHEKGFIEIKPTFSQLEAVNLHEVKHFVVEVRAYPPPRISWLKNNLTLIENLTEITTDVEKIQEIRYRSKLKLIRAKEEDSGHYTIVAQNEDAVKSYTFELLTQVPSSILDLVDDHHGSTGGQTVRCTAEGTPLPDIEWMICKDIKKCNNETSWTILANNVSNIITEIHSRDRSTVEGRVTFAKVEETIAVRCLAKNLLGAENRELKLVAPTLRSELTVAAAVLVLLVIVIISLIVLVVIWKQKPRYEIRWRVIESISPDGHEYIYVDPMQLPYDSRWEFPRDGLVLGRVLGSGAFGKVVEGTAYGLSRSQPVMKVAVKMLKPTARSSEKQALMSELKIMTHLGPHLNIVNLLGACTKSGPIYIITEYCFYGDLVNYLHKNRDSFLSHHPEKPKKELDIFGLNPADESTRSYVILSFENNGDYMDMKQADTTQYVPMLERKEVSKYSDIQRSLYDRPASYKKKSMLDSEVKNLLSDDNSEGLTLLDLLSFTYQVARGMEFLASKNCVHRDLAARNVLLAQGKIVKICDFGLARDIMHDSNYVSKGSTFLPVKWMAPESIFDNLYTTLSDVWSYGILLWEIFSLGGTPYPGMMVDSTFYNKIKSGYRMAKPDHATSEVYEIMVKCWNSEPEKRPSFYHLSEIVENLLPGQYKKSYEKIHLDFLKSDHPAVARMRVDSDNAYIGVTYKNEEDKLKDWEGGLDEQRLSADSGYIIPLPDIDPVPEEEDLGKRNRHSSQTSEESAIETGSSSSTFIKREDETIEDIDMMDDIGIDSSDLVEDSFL
Sequence of ERK5 (Q13164 whole entry): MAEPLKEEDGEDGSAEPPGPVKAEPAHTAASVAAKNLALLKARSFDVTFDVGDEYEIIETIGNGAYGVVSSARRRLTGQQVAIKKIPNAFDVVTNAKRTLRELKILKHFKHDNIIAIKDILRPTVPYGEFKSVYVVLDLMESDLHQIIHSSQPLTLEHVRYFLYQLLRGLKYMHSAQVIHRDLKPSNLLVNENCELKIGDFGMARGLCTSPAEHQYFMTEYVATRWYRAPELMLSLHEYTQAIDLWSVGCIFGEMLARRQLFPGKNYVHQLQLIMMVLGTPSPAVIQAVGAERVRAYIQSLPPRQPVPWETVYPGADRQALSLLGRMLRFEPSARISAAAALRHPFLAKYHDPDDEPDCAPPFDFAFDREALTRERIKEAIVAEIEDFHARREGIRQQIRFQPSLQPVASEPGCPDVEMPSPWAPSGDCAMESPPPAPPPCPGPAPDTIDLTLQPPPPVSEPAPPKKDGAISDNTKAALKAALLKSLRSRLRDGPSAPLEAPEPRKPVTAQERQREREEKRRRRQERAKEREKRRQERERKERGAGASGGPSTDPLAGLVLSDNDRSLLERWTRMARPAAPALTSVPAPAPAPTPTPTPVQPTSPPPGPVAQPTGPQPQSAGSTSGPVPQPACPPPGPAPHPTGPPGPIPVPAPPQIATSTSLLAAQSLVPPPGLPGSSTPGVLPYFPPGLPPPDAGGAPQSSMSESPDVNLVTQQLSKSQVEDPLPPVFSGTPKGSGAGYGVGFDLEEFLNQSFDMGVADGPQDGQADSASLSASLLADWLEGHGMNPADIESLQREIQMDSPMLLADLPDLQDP
Sequence of MKK2 (P36507 whole entry): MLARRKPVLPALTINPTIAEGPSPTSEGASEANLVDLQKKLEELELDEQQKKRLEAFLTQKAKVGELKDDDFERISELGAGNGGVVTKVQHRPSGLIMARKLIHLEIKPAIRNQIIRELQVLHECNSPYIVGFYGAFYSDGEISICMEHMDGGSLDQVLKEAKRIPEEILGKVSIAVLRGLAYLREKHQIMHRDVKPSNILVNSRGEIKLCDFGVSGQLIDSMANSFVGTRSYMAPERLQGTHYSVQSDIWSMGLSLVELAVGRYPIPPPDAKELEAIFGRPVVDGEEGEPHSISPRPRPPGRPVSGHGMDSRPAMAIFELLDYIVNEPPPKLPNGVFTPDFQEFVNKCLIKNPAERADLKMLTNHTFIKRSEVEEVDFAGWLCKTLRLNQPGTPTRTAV

Structure (SMILES) | Localization of CRTC3 (CRTC3) | remaining activity at 0.1 µM (ERK5) | remaining activity at 1 µM (ERK5) | remaining activity at 0.1 µM (MARK1) | remaining activity at 1 µM (MARK1) | remaining activity at 0.1 µM (MKK2) | remaining activity at 1 µM (MKK2) | remaining activity at 0.1 µM (PDGFRA) | remaining activity at 1 µM (PDGFRA; 1 µM) | remaining activity at 0.1 µM (S6K1) | remaining activity at 1 µM (S6K1) | remaining activity at 0.1 µM (TAK1) | remaining activity at 1 µM (TAK1) | remaining activity at 0.1 µM (ULK2) | remaining activity at 1 µM (ULK2)
COc1cc(Nc2c(C#N)cnc3cc(OCCCN4CCN(C)CC4)c(OC)cc23)c(Cl)cc1Cl [Bosutinib, bosutinib] | translocation to the nucleus | 74 ± 6% | 67 ± 10% | 84 ± 5% | 76 ± 4% | 60 ± 3% | 21 ± 4% | 96 ± 1% | 79% | 98 ± 1% | 86 ± 2% | 41 ± 9% | 5% | 78 ± 10% | 37 ± 1%
Cc1nc(Nc2ncc(C(=O)Nc3c(C)cccc3Cl)s2)cc(N2CCN(CCO)CC2)n1 [Dasatinib] | translocation to the nucleus | 87 ± 2% | 91 ± 4% | 115 ± 3% | 127 ± 3% | 113 ± 11% | 91% | 6 ± 1% | – | 108 ± 3% | 113 ± 11% | 97 ± 23% | 99 ± 7% | 101 ± 3% | 91 ± 3%
